Measured values reported in patent US20240115557A1, “INHIBITORS OF RNA-GUIDED NUCLEASES AND USES THEREOF” (The Brigham and Women's Hospital, Inc., priority 2022, published 2024).

Legend:
SpCas9 expression = assay: Immunoblotting of SpCas9 expression; assay type: cell-based; conditions: HEK293T and U2OS.eGFP.PEST, 24 h
Experimental: Approximately 500,000 U20S.eGFP.PEST cells were nucleofected as described above with 500 ng of SpCas9 plasmid. Then, cells were plated in a 12-well plate with indicated amount of compound, and incubated for 24 h. HEK293T cells were transfected with 500 ng SpCas9 plasmid as described above, and incubated with the compound for 24 h in a 24-well plate. Cells were harvested and lysed by RIPA buffer containing Protease Inhibitor Cocktail (Roche). Lysate was cleared by centrifugation at 20,000 g in 4° C., and the supernatant was taken to measure the protein concentration using BCA assay. Approximately […] of the total protein was used for immunoblotting. Rabbit anti-SpCas9 (Abcam #89380, 1:1,000 dilution) and mouse anti-a-tubulin (CST #3873, 1:2,000 dilution) were used as primary antibodies. IRDye 680RD Donkey anti-Rabbit IgG (LI-COR #925-68073, 1:10,000 dilution) and IRDye 800CW Donkey anti-Mouse IgG (LI-COR #925-32212, 1:10,000 dilution) were used as secondary antibodies.

SpCas9 = SpCas9 (Streptococcus pyogenes serotype M1, UniProt Q99ZW2); assay: Target engagement in live cells (photo-crosslinking, pull-down); assay type: cell-based; conditions: HEK293T, 20 μM probe, 20 μM competitor
SpCas9, sequence (Q99ZW2 whole entry): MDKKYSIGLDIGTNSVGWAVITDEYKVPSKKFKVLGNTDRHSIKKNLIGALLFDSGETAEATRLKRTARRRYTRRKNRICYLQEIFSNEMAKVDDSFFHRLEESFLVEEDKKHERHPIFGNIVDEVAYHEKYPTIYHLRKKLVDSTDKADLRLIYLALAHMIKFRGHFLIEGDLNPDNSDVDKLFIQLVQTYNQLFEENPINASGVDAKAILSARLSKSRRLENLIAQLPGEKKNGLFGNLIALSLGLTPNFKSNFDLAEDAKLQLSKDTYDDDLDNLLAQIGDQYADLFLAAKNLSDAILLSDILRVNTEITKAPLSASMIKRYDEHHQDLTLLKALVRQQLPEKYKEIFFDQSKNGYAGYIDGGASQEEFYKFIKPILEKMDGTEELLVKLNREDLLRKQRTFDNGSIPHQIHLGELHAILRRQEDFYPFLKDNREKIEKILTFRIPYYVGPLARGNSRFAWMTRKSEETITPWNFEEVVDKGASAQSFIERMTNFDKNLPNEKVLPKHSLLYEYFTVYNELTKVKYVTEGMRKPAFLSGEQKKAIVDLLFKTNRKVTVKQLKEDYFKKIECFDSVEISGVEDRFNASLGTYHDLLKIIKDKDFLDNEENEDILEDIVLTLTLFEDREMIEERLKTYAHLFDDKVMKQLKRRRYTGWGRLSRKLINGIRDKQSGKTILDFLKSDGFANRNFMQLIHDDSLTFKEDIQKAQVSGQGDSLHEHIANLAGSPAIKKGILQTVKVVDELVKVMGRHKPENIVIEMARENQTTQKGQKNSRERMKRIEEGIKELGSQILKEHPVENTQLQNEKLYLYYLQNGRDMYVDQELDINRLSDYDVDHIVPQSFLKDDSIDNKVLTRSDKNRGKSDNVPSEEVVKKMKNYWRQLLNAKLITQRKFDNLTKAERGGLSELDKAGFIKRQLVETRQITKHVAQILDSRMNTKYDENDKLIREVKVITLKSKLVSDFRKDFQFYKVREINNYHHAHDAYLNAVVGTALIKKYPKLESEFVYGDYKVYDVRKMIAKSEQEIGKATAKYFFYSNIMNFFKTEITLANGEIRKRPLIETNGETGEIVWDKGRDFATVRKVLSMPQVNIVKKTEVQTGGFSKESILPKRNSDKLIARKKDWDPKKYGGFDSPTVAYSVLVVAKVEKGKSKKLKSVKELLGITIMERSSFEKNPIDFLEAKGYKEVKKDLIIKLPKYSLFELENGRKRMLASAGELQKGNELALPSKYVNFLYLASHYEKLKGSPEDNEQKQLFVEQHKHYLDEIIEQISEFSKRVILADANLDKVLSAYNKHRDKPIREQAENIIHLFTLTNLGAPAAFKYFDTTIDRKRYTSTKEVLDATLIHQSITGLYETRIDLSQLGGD
Experimental: HEK293T cells were plated in a 6-well plate (400,000 cells/well). The next day, cells were transfected with […] of Cas9 expression plasmid (pX330, Addgene #42230)^51 using Lipofectamine 3000 (Invitrogen). Eight hours after transfection, cells were split into 4 wells of a 12-well plate. Total 24 h after transfection, cells were treated with DMSO, Diazirine-BRD7586 (20 μM), or Diazirine-BRD7586 with BRD7586 (both at 20 μM) for 2 h. Cells were washed with PBS once, and 500 μL of fresh PBS was added to each well. The plate was placed on ice, and cells were irradiated with UV (365 nm) for 15 min. After the removal of PBS, cells were stored at−80° C. until further analysis. Thawed cells were suspended in a lysis buffer (25 mM HEPES, 50 mM KCl, 1% Triton X-100, 1× protease inhibitor cocktail, pH 7.4, 200 μL per well), and a brief sonication was performed to ensure cell lysis. Next, click chemistry was performed with 100 μM of biotin-azide, 350 μM of Cu-TBTA, and 1.5 mM of ascorbate. The reaction was proceeded for 2 h at room temperature with mild rotation, then proteins were precipitated by the addition of cold methanol (5-fold volume of the reaction mixture) to the mixture and keeping at −80° C. for >2 h. Protein pellet was obtained by centrifugation for 10 min at 16,000 g and 4° C. […]

In the case of `O=C(CCS(=O)(=O)c1ccc(Cl)cc1)Nc1nc(-c2ccncc2)cs1` [BRD7586], the “Effect on SpCas9 expression” value (SpCas9 expression) is reported as “without altering its expression” and the “Target engagement in live cells” value (SpCas9) is reported as “demonstrating target engagement in live cells”.
